Results as given in ChEMBL document CHEMBL1201862, “PubChem BioAssay data set” (2004).
Active and inactive are the calls of the source. For most assays here, no stated cut-off is given here; in the data, actives have a measured EC50 and inactives only a lower limit.

What was measured:
BJ [1] = assay: cells; assay type: functional, cell-based; conditions: Homo sapiens
[2] = luciferase reporter signal suppression in cells – H4 neuroglioma cells, luminescence, dose response (AID 1990); assay type: functional, cell-based
[3] = DRD fibroblast viability loss – cell-based, non-viral oncogenic, luminescence, dose response (AID 1934); assay type: functional; conditions: Homo sapiens
[4] = viability of PTEN-deleted HCT116 cells – cell-based, HCT116 PTEN knockout, dose response (AID 1047); assay type: functional;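 further: HCT116 colon tumor cells with PTEN knocked out; cells exposed to compound for 60 hours before readout; potency for loss of cell viability measured by luminescence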
[5] = Luminescence-based dose response cell-based high throughput screening assay for cytotoxic compounds using the IEC-6 intestinal epithelial cell line. [Related pubchem assays: 1858 (Summary AID.), 1825 (Counterscreen.), 1907 (Confirmation screen.)]; assay type: functional
Melanocortin receptor 4 = Melanocortin receptor 4 (Homo sapiens, UniProt P32245); assay: inhibitors of MC4R cAMP signaling – cell-based, TR-FRET, biased antagonists, dose response (AID 602298); assay type: functional;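 further: antagonist potency against agonist-stimulated cAMP production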
[6] = viability of HCT116 lacking mutant beta-catenin – cell-based, human colon tumor, dose response (AID 1045); assay type: functional;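 further: HCT116 colon tumor cells with beta catenin knocked out; cells exposed to compound for 60 hours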
Paired box protein Pax-8 = Paired box protein Pax-8 (Homo sapiens, UniProt Q06710); assay: PAX8 transcriptional activity inhibition in RMG-I – RMG-I cells, luciferase, cherry-pick, dose response (AID 687027); assay type: functional, cell-based;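 further: luciferase reporter driven by Pax8 target thyroperoxidase promoter measured by SteadyGlo luminescence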
[7] = alpha-synuclein stem-loop luciferase translation blockers – H4 neuroglioma cells, luminescence, confirmation (AID 1988); assay type: functional, cell-based
[8] = biological target: T1, Serine/threonine-protein phosphatase (Candida dubliniensis (strain CD36 / CBS 7987 / NCPF 3949 / NRRLY-17841) (Yeast), UniProt B9W6M3); assay: blockers of CaCl2-induced CDRE-lacZ signaling – S. cerevisiae, luminescence, secondary, dose response (AID 2388); assay type: functional, cell-based;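 further: yeast reporter cells carrying a calcineurin-responsive lacZ construct stimulated with calcium chloride; luminescent beta-galactosidase reporter signal in whole cells rather than isolated phosphatase activity; potency for inhibition where a drop in reporter signal means calcineurin blockade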
T1 sequence (B9W6M3 whole entry): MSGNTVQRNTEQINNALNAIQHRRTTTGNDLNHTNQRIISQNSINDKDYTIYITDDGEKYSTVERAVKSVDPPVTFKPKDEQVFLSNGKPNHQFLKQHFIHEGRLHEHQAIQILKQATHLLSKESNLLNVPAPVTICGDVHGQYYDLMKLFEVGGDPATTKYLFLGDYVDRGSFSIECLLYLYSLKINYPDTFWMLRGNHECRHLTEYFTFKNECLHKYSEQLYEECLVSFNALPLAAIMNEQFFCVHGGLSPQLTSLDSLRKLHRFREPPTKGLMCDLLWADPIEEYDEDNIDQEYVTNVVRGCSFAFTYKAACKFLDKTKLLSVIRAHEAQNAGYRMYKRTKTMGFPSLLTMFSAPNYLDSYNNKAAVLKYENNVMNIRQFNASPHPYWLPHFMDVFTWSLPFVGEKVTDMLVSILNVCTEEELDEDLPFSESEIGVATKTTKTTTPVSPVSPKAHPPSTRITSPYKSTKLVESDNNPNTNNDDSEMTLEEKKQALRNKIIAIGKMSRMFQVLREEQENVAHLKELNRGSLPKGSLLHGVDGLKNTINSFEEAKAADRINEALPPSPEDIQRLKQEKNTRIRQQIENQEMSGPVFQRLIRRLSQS

[9] = biological target: ATP-dependent molecular chaperone HSP82 (Candida albicans (strain WO-1) (Yeast), UniProt C4YTQ8); assay: steroid-induced GRE reporter decrease in yeast – S. cerevisiae, luminescence, Hsp90 inhibitor project, dose response (AID 2400); assay type: functional, cell-based;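 further: beta-galactosidase luminescence from glucocorticoid response element reporter as proxy for Hsp90 function; inhibitor potency where signal loss means Hsp90 inhibition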
BJ [10] = assay: BJ-TERT fibroblast viability loss – cell-based, RAS-independent, luminescence, dose response (AID 1933); assay type: functional; conditions: Homo sapiens
[11] = fluconazole-exposed Candida albicans growth modulators – fluorescence, retest, confirmation (AID 2467); assay type: functional, cell-based
[12] = cAMP pathway inhibition in counterscreen cell line – TR-FRET cAMP detection, counter-screen for MC4R biased antagonist project, dose response (AID 602305); assay type: functional, cell-based;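 further: U2OS cells stimulated with forskolin near its EC80 as the cAMP inducer; potency is for inhibition of forskolin-stimulated cAMP signaling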
BJ [13] = assay: BJ-TERT-LT-ST fibroblast viability loss – cell-based, RAS-independent, luminescence, dose response (AID 1935); assay type: functional; conditions: Homo sapiens;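 further: BJ fibroblasts immortalized with TERT plus LT and ST oncogenes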
[14] = NIH-3T3 fibroblast cytotoxicity, dose response, cytotoxicity control, cell-based, fluorescence, Alamar Blue, secondary assay (AID 2327); assay type: functional;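 further: NIH-3T3 mouse fibroblasts cultured with fluconazole at 8 µg/mL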
BJ [15] = assay: growth inhibition of engineered Ras-driven BJ cells – cell-based, alamar blue fluorescence, cherrypicked samples, dose response (AID 2631); assay type: functional; conditions: Homo sapiens;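 further: confirmatory dose-response assay in RAS-dependent BJ fibroblasts engineered with TERT, LT and ST, with cytotoxicity read by fluorescence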
[16] = Luminescence Cell-Based Dose Response HTS to Identify Inhibitors of 5'UTR Stem-Loop Driven Prion Protein mRNA Translation in H4 Neuroglioblastoma Cells. [Related pubchem assays: 1827 (Project Summary), 1813 (Primary HTS)]; assay type: functional
Estrogen receptor = biological target: T2, Estrogen receptor (Homo sapiens, UniProt P03372);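 further: potency for inhibiting coactivator peptide recruitment to the receptor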
T2 sequence (P03372 whole entry): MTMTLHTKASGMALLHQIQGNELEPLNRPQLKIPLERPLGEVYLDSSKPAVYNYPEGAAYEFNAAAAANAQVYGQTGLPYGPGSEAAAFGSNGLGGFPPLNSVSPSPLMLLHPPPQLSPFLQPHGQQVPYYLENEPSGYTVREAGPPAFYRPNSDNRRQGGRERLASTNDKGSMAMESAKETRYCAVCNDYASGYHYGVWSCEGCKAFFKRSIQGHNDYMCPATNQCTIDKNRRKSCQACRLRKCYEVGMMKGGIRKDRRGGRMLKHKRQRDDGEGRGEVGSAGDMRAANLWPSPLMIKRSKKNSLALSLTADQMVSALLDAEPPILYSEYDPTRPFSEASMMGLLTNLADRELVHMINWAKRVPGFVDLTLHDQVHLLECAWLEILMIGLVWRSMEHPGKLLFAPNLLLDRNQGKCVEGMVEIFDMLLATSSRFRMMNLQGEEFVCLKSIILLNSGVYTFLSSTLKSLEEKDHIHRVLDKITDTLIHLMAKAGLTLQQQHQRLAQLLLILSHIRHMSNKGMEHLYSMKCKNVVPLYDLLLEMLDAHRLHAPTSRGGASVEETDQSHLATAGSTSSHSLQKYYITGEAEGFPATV

Estrogen receptor beta [17] = biological target: T3, Estrogen receptor beta (Homo sapiens, UniProt Q92731); assay: blockers of SRC-3 recruitment to ERβ – biochemical, ELISA, streptavidin-HRP readout, orthogonal assay, confirmation (AID 1060)
Estrogen receptor beta [18] = biological target: T3, Estrogen receptor beta

T3 sequence (Q92731 whole entry): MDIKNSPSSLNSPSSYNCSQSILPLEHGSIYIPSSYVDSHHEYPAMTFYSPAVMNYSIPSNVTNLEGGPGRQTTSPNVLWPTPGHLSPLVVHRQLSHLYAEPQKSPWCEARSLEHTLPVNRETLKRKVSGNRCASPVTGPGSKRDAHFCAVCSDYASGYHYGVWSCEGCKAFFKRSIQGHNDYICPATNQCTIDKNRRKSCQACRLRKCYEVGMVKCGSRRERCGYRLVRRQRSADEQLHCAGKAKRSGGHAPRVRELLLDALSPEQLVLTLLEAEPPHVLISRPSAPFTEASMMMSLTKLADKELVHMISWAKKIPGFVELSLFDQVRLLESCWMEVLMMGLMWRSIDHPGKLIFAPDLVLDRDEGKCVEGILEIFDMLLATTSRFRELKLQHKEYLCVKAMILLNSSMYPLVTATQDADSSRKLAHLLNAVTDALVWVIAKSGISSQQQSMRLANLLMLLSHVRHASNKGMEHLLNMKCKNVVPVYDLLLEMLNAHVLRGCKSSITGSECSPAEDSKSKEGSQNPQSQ
Chain of ATP-dependent molecular chaperone HSP82 (C4YTQ8 whole entry): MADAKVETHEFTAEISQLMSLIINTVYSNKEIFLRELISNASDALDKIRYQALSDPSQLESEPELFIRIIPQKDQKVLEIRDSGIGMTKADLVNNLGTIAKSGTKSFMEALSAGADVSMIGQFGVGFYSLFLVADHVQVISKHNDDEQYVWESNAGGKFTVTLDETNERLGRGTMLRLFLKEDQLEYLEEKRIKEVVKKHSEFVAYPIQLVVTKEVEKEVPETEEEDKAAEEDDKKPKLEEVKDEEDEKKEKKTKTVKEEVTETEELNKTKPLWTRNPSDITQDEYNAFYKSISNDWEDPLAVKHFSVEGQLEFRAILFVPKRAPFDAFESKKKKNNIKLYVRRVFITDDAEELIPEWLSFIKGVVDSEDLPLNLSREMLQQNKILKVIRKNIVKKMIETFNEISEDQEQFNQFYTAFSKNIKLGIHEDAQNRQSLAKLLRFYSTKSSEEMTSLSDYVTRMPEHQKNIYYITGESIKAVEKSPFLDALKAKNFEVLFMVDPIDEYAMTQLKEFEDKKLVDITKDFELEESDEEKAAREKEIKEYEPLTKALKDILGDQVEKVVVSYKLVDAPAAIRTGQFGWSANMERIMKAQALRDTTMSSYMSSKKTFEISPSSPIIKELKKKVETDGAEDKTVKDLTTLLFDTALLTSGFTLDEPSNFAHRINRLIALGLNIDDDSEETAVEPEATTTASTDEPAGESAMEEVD
Chain of Paired box protein Pax-8 (Q06710 whole entry): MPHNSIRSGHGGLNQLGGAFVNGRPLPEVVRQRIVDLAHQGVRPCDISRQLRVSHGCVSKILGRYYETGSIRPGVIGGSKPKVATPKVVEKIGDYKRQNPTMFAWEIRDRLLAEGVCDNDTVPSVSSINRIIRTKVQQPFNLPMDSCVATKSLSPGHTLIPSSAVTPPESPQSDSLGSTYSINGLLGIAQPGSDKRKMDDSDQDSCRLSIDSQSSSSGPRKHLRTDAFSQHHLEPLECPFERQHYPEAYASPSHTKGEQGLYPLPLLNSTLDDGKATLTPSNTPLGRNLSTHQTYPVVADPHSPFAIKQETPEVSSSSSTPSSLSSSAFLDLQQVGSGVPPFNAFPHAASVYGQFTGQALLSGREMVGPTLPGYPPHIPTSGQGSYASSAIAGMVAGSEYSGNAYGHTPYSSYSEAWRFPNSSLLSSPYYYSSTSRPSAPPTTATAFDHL
Chain of Melanocortin receptor 4 (P32245 whole entry): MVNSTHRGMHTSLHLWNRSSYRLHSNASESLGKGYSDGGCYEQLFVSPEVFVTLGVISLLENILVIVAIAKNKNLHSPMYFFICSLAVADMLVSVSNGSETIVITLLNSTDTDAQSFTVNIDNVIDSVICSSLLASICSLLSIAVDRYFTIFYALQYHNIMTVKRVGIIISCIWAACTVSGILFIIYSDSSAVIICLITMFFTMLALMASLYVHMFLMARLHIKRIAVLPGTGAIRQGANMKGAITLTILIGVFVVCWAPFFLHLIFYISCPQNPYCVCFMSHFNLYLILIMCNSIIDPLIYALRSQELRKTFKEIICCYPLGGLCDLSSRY

O=C(NC(Nc1nc2ccc([N+](=O)[O-])cc2s1)(C(F)(F)F)C(F)(F)F)c1ccccc1Cl
EC50 (BJ [1]): 1.41 µM (active) | EC50 [2]: 266 nM (active) | EC50 [3]: 1.81 µM (active) | EC50 [4]: 234 nM (active) | IC50 [5]: 1.64 µM (active) | IC50 (Melanocortin receptor 4): > 64.6 µM (inactive) | EC50 [6]: 242 nM (active) | AC50 (Paired box protein Pax-8): 676 nM (active) | EC50 [7]: 242 nM (active) | EC50 [8]: > 180 µM (inactive) | EC50 [9]: 22.6 µM (active) | EC50 (BJ [10]): 1.35 µM (active) | EC50 [11]: 758 nM (active) | IC50 [12]: > 64.6 µM (inactive) | EC50 (BJ [13]): 5.65 µM (inconclusive) | EC50 [14]: 12.3 µM (active) | EC50 (BJ [15]): 1.11 µM (active) | EC50 [16]: 6.53 µM (active)

O=Cc1ccc2oc3nc4n(c(=O)c3c(=O)c2c1)CCCS4
IC50 (Estrogen receptor): 17.8 µM (active) | IC50 (Estrogen receptor beta [17]): > 50 µM (not active) | IC50 (Estrogen receptor beta [18]): > 50 µM (not active)
